From patent publication US11963939B2, “Use of N-acetylcysteine to treat central nervous system disorders” (Neuronasal, Inc., priority 2017, dated 2024)
Like-named read-outs stand apart in the source and are kept apart here.

How the values were obtained:
primary cortical neurons = assay: cells; format: cell-based, mouse; conditions: for Protection against hemin-induced toxicity (in words): MTT
Procedure: Primary cortical neuronal cultures: Primary cortical neurons were collected from embryonic (E15) CD1 mice. The cortices of the mice were dissected, homogenized, and plated in minimum essential medium containing 10% fetal bovine serum (FBS), 5% horse serum, and 1% penicillin/streptomycin in 96-well plates, 6-well plates, or 10-cm dishes. The neurons were maintained at 37° C. with 5% CO2. All experiments were conducted 24 hours after plating.
In vitro ICH model: Ferroptosis is a type of programmed cell death that is dependent on iron, and is characterized by the accumulation of lipid peroxides. Ferroptosis is genetically and biochemically distinct from other forms of regulated cell death such as apoptosis. Ferroptosis is initiated by the failure of the glutathione-dependent antioxidant defenses, resulting in unchecked lipid peroxidation and eventual cell death.
Cell death was induced in primary cortical neurons by treating the neurons with hemin, a blood breakdown product. For the neuroprotection studies, cells were treated with hemin (100 μM) in the presence of NAC (0.1 mM to 1mM), 6-hydroxy-2,5,7,8-tetramethylchroman-2-carboxylic acid (trolox; 0.1 μM to 100 μM), β-carotene (0.1 μM to 100 μM) α-lipoic acid (0.01 mM to 2 mM), glutathione ethyl ester (1 mM to 10 mM), oxothiazolidine-4-carboxylate (1 mM to 10 mM), cystamine (0.1 μM to 10 μM), or nordihydroguaiaretic acid (0.1 μM to 10 μM). Cell viability was analyzed 24 h after treatment. The cells were rinsed with warm phosphate-buffered saline (PBS) and assessed using an MTT assay. The fidelity of the MTT assays in measuring viability was verified by calcein-AM/ethidium homodimer-1 staining (Live/Dead assay).
The ability of NAC to protect cells was investigated in a hemin model of hemorrhagic stroke. The in vitro model of ICH involved the administration of hemin, a breakdown product of hemoglobin from lysed blood, to trigger cell death. Treatment of primary cortical neurons with 100 μM hemin induced widespread cell death through a ferroptotic mechanism, which was quantified with MTT and qualitatively observed using live/dead staining. Living cells were labeled with calcein-AM, and dead cells were labeled with ethidium homodimer. […] Scale bars: 100 μm.
A systematic pharmacological screening of oxidized lipid species inhibitors in the context of hemin-induced cell death was performed in primary cortical neurons. Primary cortical neurons were co-treated with hemin and a non-specific or enzymatic lipid peroxidation inhibitor. The MTT assays were performed 18 h following the co-treatment.

[1] = tested on: collagenase-induced mouse model of ICH; assay: In vivo collagenase-induced mouse model of ICH (Fluoro-Jade staining, corner task, adhesive tape removal task, hematoma size)
Procedure: In vivo collagenase-induced mouse model of ICH: Male C57BL/6 mice (8 to 10 weeks of age) or mice (10 to 12 weeks of age) were anesthetized with isoflurane (2% to 5%) and placed on a stereotaxic frame. During the procedure, the animal's body temperature was maintained at 37° C. with a homeothermic blanket. 1 mL of collagenase (0.075 IU) was infused into the right striatum at a flow rate of 0.120 μL/min using a Nanomite® syringe pump and a syringe. Relative to the bregma point, the stereotaxic coordinates of the injection were: lateral, −0.20; anteroposterior, 0.62; and dorsoventral, −0.40. In control animals, 1 mL of saline was infused. The treatment group received NAC (75 mg/kg or 300 mg/kg in normal saline, I.P.) once a day for 7 days starting at 2 h after collagenase infusion. For combinatorial studies, NAC (40 mg/kg, I.P.) and PGE 2 (10 μM, ICV) were administered to the mice 2 h after the collagenase injection, and then NAC (40 mg/kg) was administered once daily for 7 days. The control groups received the vehicle (normal saline) alone. The animals were randomized to sham or ICH groups. The identities of the mice that received vehicle or NAC were masked to surgeons who performed the experiments. […] Proper postoperative care was provided until the animals recovered completely.
Behavioral analysis: The corner task assessed integrated sensorimotor function in the stimulation of vibrissae (sensory neglect) and rearing (motor response). Mice were placed between two cardboard pieces that formed a corner with a 30° angle. While maintaining the 30° angle, the boards were gradually moved toward the mouse until the mouse approached the corner, reared upward, and turned 180° to face the open end. The direction (left or right) in which the mouse turned was recorded for each trial. Ten trials were performed for each mouse.
For the sensory neglect task (adhesive tape removal task), adhesive tape was placed on the planter region of the forward paw (right and left) of each mouse. The time from which the tape was applied to when the mouse successfully removed the tape was recorded for each paw. A maximum of 300 s for each paw was allowed.
Fluoro-Jade® B staining: Neurodegeneration of cells was assessed in mice with collagenase-induced ICH using Fluoro-Jade® B staining. 40 μM brain sections were mounted on gelatin-coated slides and dried at room temperature overnight. The sections were immersed in a graded series of alcohol solutions before being immersed in a 0.06% potassium permanganate (KMnO4) solution for 15 min. Sections were washed with water before being immersed in a 0.001% Fluoro-Jade® staining solution with gentle shaking in the dark for 30 min. The sections were then washed with water and dried overnight at room temperature in the dark before being dehydrated and coverslipped with DPX. Fluoro-Jade® B staining was examined within perihematoma or hematoma regions using a fluorescence microscope. Quantification of Fluoro-Jade® B staining was performed using three brain sections (anterior to posterior of hematoma) using Metamorph analysis.
The vehicle or NAC was then administered daily up to 7 days following the ictus. Neuronal loss was determined using a non-specific marker of neurodegeneration, Fluoro-Jade® staining. […] Mouse behavior was assessed using a corner task (spatial neglect) and an adhesive tape removal task (sensory neglect). Mouse behavior was assessed on day 1, 3, and 7 after the induction of ICH.

recombinant ALOX5 = molecular target: T1, recombinant ALOX5 (Homo sapiens, UniProt P09917); assay: Lipoxygenase UV/Vis-based IC50 assay with recombinant ALOX5; format: biochemical; conditions: test tube assay
T1 sequence (P09917 1-674): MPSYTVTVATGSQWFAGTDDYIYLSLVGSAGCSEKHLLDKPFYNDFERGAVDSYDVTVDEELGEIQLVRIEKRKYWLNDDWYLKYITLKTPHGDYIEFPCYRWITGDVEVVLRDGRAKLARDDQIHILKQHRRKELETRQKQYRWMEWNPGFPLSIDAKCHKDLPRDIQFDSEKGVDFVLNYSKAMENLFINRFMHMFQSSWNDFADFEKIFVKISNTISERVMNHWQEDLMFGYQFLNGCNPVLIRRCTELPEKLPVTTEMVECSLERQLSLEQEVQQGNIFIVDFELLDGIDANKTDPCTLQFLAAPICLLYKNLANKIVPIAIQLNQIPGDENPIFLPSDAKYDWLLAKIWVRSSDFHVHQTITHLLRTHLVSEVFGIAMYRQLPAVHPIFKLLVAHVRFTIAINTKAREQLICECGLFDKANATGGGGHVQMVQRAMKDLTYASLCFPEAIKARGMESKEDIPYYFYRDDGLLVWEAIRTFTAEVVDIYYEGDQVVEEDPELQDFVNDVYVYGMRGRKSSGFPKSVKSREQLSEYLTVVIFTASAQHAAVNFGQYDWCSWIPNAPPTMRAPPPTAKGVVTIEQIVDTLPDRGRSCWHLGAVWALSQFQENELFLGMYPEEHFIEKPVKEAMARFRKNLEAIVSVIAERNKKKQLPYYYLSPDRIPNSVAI
Procedure: Lipoxygenase UV/Vis-based IC50 assay: Inhibition potencies were determined by following the formation of conjugated diene products, 5-HpETE [ε=27000 M^−1 cm^−1 for AA turnover) at 234 nm using a UV/Vis spectrophotometer. All reaction mixtures were 2 mL in volume, and the reaction mixtures were constantly stirred using a magnetic stir bar at room temperature (23° C.). All reactions were carried out in a buffer containing 200 μM ATP and 10 μM AA. The AA concentration of a sample was verified by full turnover with soybean-1 lipoxygenase and quantifying the product concentration. Inhibitors were stored in DMSO at −20° C. Enzymatic reactions were initiated by adding approximately 100 nM-300 nM ammonium sulfate-precipitated wildtype enzyme. IC50 values were obtained by determining the enzymatic rate at a minimum of five inhibitor concentrations, plotting the enzymatic rate against inhibitor concentration, and performing a hyperbolic saturation curve fit. Inhibitor concentrations were assayed in duplicate or triplicate.
Significance was determined by two-way ANOVA and Bonferroni's post hoc test.

lipid protein adducts = assay: Hemin-induced lipid protein adduct formation (Bt-AA, streptavidin-HRP Western blot) in primary neurons; format: cell-based, mouse; conditions: for AA-protein adduct formation: non-protective doses: NAC 0.1 mM, vitamin E 1 μM, zileuton 1 μM; for Lipid protein adduct formation: protective doses: NAC 1 mM, vitamin E 10 μM, zileuton 10 μM
Procedure: Electrophilic attack by ALOX5 products could alter cellular protein-mediated signaling to trigger cell death. Arachidonic acid (AA) tagged with biotin (Bt-AA) was used to monitor the formation of covalent protein adducts. To test whether hemin was sufficient to catalyze the formation of protein-reactive lipid species, primary neurons were treated with hemin at concentrations of 5 μM-50 μM for 4 h. Lipid protein adducts were detected by Western blots probed with Streptavidin-HRP. Bt-AA incorporation into protein increased with increasing concentrations of hemin, and significant lipid protein adducts were detected at 50 μM hemin. […] The blot is representative from replicates of three experiments. The arrow indicates the decrease in lipid protein adduct formation.

[2] = primary cortical neurons, 100 μM hemin
[3] = Mus musculus, Primary cortical neuron, protection from 100 μM hemin, MTT (Table 2), read-out: EC50
[4] = protection from 100 μM hemin, MTT (Table 2), read-out: EC50
[5] = NAC 40 mg/kg i.p. and/or PGE2 10 μM ICV, days 1, 3, 7

## CC(=O)Oc1ccccc1C(=O)O [Aspirin]
Primary cortical neurons; [2]
  Protection against hemin-induced toxicity (in words): failed to protect against hemin toxicity

## CCCCS(=N)(=O)CCC(N)C(=O)O (centres unmarked) [BSO, buthionine sulfoximine]
Primary cortical neurons; co-treatment with NAC and BSO
  Effect on NAC-induced protection from hemin: reversed NAC-induced protection

## CC(=O)N(O)C/C=C/c1cccc(Oc2ccccc2)c1 [BW A4C]
Primary cortical neurons; 100 μM hemin, primary cortical neurons, read-out: EC50 for reduction of hemin-induced toxicity/ferroptosis
  EC50: 5 µM

## CC(C=Cc1cccc(Oc2ccc(F)cc2)c1)N(O)C(N)=O (centres unmarked) [BW B70]
Primary cortical neurons; [2]
  Protection against hemin-induced toxicity (in words): significantly reduced hemin-induced toxicity

## NCCSSCCN [Cystamine]
Primary cortical neurons; [3]
  EC50: 7.5 µM
Primary cortical neurons; [2]
  Protection against hemin-induced toxicity (in words): prevented hemin-induced death as effectively as NAC

## CCOC(=O)CNC(=O)[C@H](CS)NC(=O)CC[C@H](N)C(=O)O [Glutathione ethyl ester]
Primary cortical neurons; [2]
  Protection against hemin-induced toxicity (in words): prevented hemin-induced death as effectively as NAC
Primary cortical neurons; [4]
  EC50: 2500 µM

## COc1ccc2c(c1)c(CC(=O)O)c(C)n2C(=O)c1ccc(Cl)cc1 [Indomethacin]
Primary cortical neurons; [2]
  Protection against hemin-induced toxicity (in words): failed to protect against hemin toxicity

## C#CCOc1ccccc1CCCCCC(=O)NS(C)(=O)=O [MS-PPOH]
Primary cortical neurons; [2]
  Protection against hemin-induced toxicity (in words): failed to protect against hemin toxicity

## CCC(=O)NC(c1cccs1)c1cc([N+](=O)[O-])c2cccnc2c1O (centres unmarked) [NCTT-956]
Primary cortical neurons; [2]
  Protection against hemin-induced toxicity (in words): failed to protect against hemin toxicity

## CC(Cc1ccc(O)c(O)c1)C(C)Cc1ccc(O)c(O)c1 (centres unmarked) [Nordihydroguaiaretic acid]
Primary cortical neurons; [3]
  EC50: 5 µM
Primary cortical neurons; [2]
  Protection against hemin-induced toxicity (in words): prevented hemin-induced death as effectively as NAC

## O=C1NC(C(=O)O)CS1 (centres unmarked) [Oxothiazolidine-4-carboxylate]
Primary cortical neurons; [2]
  Protection against hemin-induced toxicity (in words): prevented hemin-induced death as effectively as NAC
Primary cortical neurons; [4]
  EC50: 2500 µM

## c1ccc2c(c1)SCc1c-2[nH]c2ccccc12 [PD146176]
Primary cortical neurons; [2]
  Protection against hemin-induced toxicity (in words): failed to protect against hemin toxicity

## CCCCC[C@H](O)/C=C/[C@H]1[C@H](O)CC(=O)[C@@H]1C/C=C\CCCC(=O)O [PGE2, prostaglandin E2]
[1]; [5]
  Sensory neglect (adhesive tape removal task) behavioral deficits: no effect
  Spatial neglect (corner task) behavioral deficits: no effect

## CC(c1cc2ccccc2s1)N(O)C(N)=O (centres unmarked) [Zileuton]
Primary cortical neurons; Mus musculus, Primary cortical neuron, 100 μM hemin, primary cortical neurons, read-out: EC50 for reduction of hemin-induced toxicity/ferroptosis
  EC50: 7 µM
Recombinant ALOX5
  Inhibition of ALOX5 activity: effective in inhibiting ALOX5
Lipid protein adducts
  AA-protein adduct formation: did not decrease AA-protein adduct formation
  Lipid protein adduct formation: decreased lipid protein adduct formation

## CCCCC(C)(C)[C@H](O)/C=C/[C@H]1[C@H](O)CC(=O)[C@@H]1C/C=C\CCCC(=O)O [dmPGE2, 16,16-dimethyl PGE2]
Primary cortical neurons; [2]
  Protection against hemin-induced toxicity (in words): dose-dependently abrogated hemin-induced toxicity
[1]; NAC 40 mg/kg i.p. daily 7 days and/or dmPGE2 10 μM ICV 2 h post-injury
  Neuronal degeneration in perihematomal regions (Fluoro-Jade staining): no significant effect

## Cc1c(C)c2c(c(C)c1O)CCC(C)(C(=O)O)O2 (centres unmarked) [trolox, 6-hydroxy-2,5,7,8-tetramethylchroman-2-carboxylic acid]
Primary cortical neurons; [2]
  Protection against hemin-induced toxicity (in words): abrogated hemin-induced toxicity in a dose-dependent manner

## Cc1c(C)c2c(c(C)c1O)CC[C@@](C)(CCC[C@H](C)CCC[C@H](C)CCCC(C)C)O2 [vitamin E, α-tocopherol]
Lipid protein adducts
  AA-protein adduct formation: did not decrease AA-protein adduct formation
  Lipid protein adduct formation: decreased lipid protein adduct formation

## O=C(O)CCCCC1CCSS1 (stereo not drawn) [α-Lipoic acid, α-lipoic acid]
Primary cortical neurons; [2]
  Protection against hemin-induced toxicity (in words): failed to prevent hemin toxicity at any dose examined

## CC1=C(/C=C/C(C)=C/C=C/C(C)=C/C=C/C=C(C)/C=C/C=C(C)/C=C/C2=C(C)CCCC2(C)C)C(C)(C)CCC1 [β-carotene]
Primary cortical neurons; [2]
  Protection against hemin-induced toxicity (in words): protected against hemin-induced toxicity
Recombinant ALOX5
  Inhibition of ALOX5 activity: did not inhibit ALOX5 activity

## Hemin
Primary cortical neurons
  % Viability: 50.14%
Primary cortical neurons; hemin itself (toxic stimulus), Table 2 EC50 column, read-out: EC50
  EC50: 100 µM
